Literature values, collected in paper PMC9959244, “Revisiting the Solubility–Permeability Relationship with Hydrophobic Drug Umifenovir in Pluronic Solutions: Impact of pH and Co-Solvent” (Pharmaceutics, 2023).
Like-named read-outs stand apart in the source and are kept apart here.

Legend:
[1] = design: method as in doi:10.1016/S1773-2247(07)50022-5; conditions: cited from earlier work
[2] = design: method as in PMID 33926020; conditions: kneaded ternary complex with β-cyclodextrin and 1% poloxamer 188; cited from earlier work

CCOC(=O)c1c(CSc2ccccc2)n(C)c2cc(Br)c(O)c(CN(C)C)c12.Cl [arbidol hydrochloride]
Increase of dissolution at 3 min vs pure compound ([1]; solid dispersion with PEG 4000): 14.0 fold | Percent concentration after 3 min of dissolution ([1]; solid dispersion with PEG 4000): 53.6% | Increase of dissolution at 3 min vs pure compound ([1]; solid dispersion with PEG 8000): 15.4 fold | Percent concentration after 3 min of dissolution ([1]; solid dispersion with PEG 8000): 59.0% | Solubility increase [2]: 13.1 fold
